Bridge positions count the residues as written; N and C are the ends. Peptide text beside a SMILES is read from it. * marks the point of attachment. C18 diacid = O=C(O)CCCCCCCCCCCCCCCCC(=O)*
How the values were obtained:
[1] = mouse, in vivo
Procedure: (§1) Blood samples were drawn from the animals (approximately 100 μl) at different time points (1 hr, 3 hr, 6 hr, 24 hr) following the injection. The plasma was separated from the whole blood by centrifugation at 7,000 RPM for 10 minutes and the supernatant was transferred to a new tube. To separate the peptides or peptide conjugates from the plasma proteins, the proteins were denatured using a 7M guanidinium hydrochloride solution mixed 1:1 with the plasma and incubated at room temperature for 15 minutes. Subsequently, to the solution was diluted 10-fold with cold ethanol and the samples were incubated at −20° C. After 1 hour incubation the samples were centrifuged at 10,000 RPM for 10 minutes to precipitate the proteins, and the supernatant was transferred to a new tube. Samples were kept at −80° C. until analyzed.
(§2) 5-20 μl of the ethanol solution were injected to a QTRAP 6500+LC-MS/MS system (SCIEX) for detecting the drug concentration. Mass spectra were obtained and the areas under the curves were evaluated against a calibration curve made formerly.
(§3) Blood pressure measurements were taken for the first 20 minutes following drug injection, and subsequently blood samples were drawn at 1, 3, 6 and 24 hours.

[2] = Non-invasive tail-cuff systolic blood pressure measurement in mice; type: in vivo, C57BL/6 mice; settings: for increase in systolic blood pressure: C57BL mice, intraperitoneal injection, 0.1 to 10 μg/gr body weight, 20 minutes of measurement, compared with PBS vehicle
V1 receptor = molecular target: T1, V1 receptor (Homo sapiens, UniProt P37288); assay: Calcium influx assay (Fluo-4) in primary human aortic smooth muscle cells; type: cell-based; settings: 10^-8 to 10^-4 M, fluorescence over 5 min
T1 construct: Primary human aortic smooth muscle cells (ATCC, PCS-100-012 cell line) were cultured in vascular cell basal medium; host or cells: primary human aortic smooth muscle cells
T1 sequence (P37288 whole entry): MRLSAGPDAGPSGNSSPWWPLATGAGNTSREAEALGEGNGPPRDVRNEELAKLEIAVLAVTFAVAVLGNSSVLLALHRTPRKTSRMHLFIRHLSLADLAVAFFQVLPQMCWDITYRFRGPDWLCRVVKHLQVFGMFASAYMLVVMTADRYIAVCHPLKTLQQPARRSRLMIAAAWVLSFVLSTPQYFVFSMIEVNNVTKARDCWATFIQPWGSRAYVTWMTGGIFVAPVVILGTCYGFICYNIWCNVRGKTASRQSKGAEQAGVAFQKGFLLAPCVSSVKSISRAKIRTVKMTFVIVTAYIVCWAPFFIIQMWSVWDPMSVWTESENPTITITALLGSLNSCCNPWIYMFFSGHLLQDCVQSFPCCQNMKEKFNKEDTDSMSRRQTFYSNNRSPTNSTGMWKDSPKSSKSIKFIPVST
Procedure: Primary human aortic smooth muscle cells (ATCC, PCS-100-012 cell line) were cultured in vascular cell basal medium supplemented with rhFGF-basic 5 ng/mL, rh insulin 5 μg/mL, ascorbic acid 50 μg/mL, L-glutamine 10 mM, rh EGF 5 ng/mL, fetal bovine serum 5%.
Calcium influx assays were performed using Fluo-4 direct calcium assay kit (ThermoFisher) on cells between passage numbers 3 to 6. To this end, cells were passaged and plated in a 96-well black tissue culture plate in a concentration of 10,000 cells per well followed by incubation in 37° C. and 5% CO2 for 48 hours. Cells were loaded with the dye and incubated for 1 hr at 37° C. and 5% CO2. Then, terlipressin peptide or terlipressin-ODDA was added to the wells in concentrations ranging from 10^−8 to 10^−4 M, and fluorescence was measured immediately on a Perkin Elmer EnSpire 2300 plate reader. Signal was measured at 530 nm following excitation at 488 nm at 999 time points over a 5 min period.

in vivo = settings: mouse
Procedure: as §1, §2, §3

[3] = human, in vivo; cited from earlier work
[4] = listed as terlipressin conjugate
[5] = mice, systolic blood pressure vs baseline (FIG. 8)

Row | SMILES | detection in plasma by LC-MS-MS [1] | half-lifetime in plasma [1] | increase in systolic blood pressure [2] | increase in systolic blood pressure ([2]; listed as C18 ODDA-terlipressin conjugates) | increase in systolic blood pressure ([2]; listed as ODDA-terlipressin conjugates) | increase in systolic blood pressure [2, 4] | course of systolic blood pressure over time after injection [2, 5] | activation of smooth muscle cells indicated by influx of intracellular calcium (V1 receptor; listed as conjugate) | activation of smooth muscle cells indicated by influx of intracellular calcium (V1 receptor; [4]) | activation of smooth muscle cells indicated by influx of intracellular calcium (V1 receptor; listed as terlipressin conjugates) | half-life (in vivo) [h] | time of peak in measured blood pressure following the injection [2, 5] [min] | half life following IV administration [3]
1 | NCCCCC(NC(=O)C1CCCN1C(=O)C1CSSCC(NC(=O)CNC(=O)CNC(=O)CNC(=O)CCCCCCCCCCCCCCCCC(=O)O)C(=O)NC(Cc2ccc(O)cc2)C(=O)NC(Cc2ccccc2)C(=O)NC(CCC(N)=O)C(=O)NC(CC(N)=O)C(=O)N1)C(=O)NCC(N)=O (stereo not shown) [C18-terlipressin, octadecanedioic acid-terlipressin] ({C18 diacid}-GGGCYFQNCPKG-NH2; disulfide 4-9; configuration not given here) | very sharp and clear peaks | about 1 hour | clear increase in pressure | increase the systolic blood pressure | increase the systolic blood pressure | Rise in blood pressure was observed | more stable pressure over time | can stimulate vasocontraction in cultured smooth muscle cells | can stimulate response in cultured smooth muscle cells | can bind to and activate smooth muscle cells | ~1 |  | 
2 | NCCCC[C@H](NC(=O)[C@@H]1CCCN1C(=O)[C@@H]1CSSC[C@H](NC(=O)CNC(=O)CNC(=O)CN)C(=O)N[C@@H](Cc2ccc(O)cc2)C(=O)N[C@@H](Cc2ccccc2)C(=O)N[C@@H](CCC(N)=O)C(=O)N[C@@H](CC(N)=O)C(=O)N1)C(=O)NCC(N)=O [terlipressin, Terlipressin] (H-GGGCYFQNCPKG-NH2; disulfide 4-9) | no terlipressin was detected at all |  | clear increase in pressure |  |  |  | continuous drop in pressure |  |  |  |  | 5 | less than 6 minutes

From patent US20230399360A1, “TERLIPRESSIN-OCTADECANEDIOIC ACID CONJUGATE FOR VASOCONSTRICTIVE THERAPY” (Northwestern University, priority 2019, published 2023)
